Assay results as given in US20130150363A1, “Method of Treating Cancer Using a cMET and AXL Inhibitor and an ErbB Inhibitor” (GlaxoSmithKline, priority 2008, published 2013).
pIC50: −log10 of the molar value.

Assays:
Format in all cases: cell-based
[1] = test system: HN5C12 (HN5C2) lapatinib resistant head and neck carcinoma cells; experiment: Cell growth inhibition (CellTiter-Glo), HN5C12; conditions: Homo sapiens, 72 h, 3 days
Description: (§1) Esophageal carcinoma cell line OE33 was purchased from ECACC European Collection of Cell Cultures (UK). Breast cancer cell line JIMT-1 and gastric carcinoma cell line MKN-45 were purchased from Deutsche Sammlung von Mikroorganismen and Zellkulturen GmbH (Germany); KPL-4, a human breast cancer cell line was kindly provided by Prof. J Kurebayashi (Kawasaki Medical School, Kurashiki, Japan). […] The LICR-LON-HN5 head and neck carcinoma cell line (HN5) was a gift from the Institute of Cancer Research, Surrey, U.K. HN5C12 was developed by single-cell cloning of HN5 followed by exposure to increasing concentrations of lapatinib. […] Cell growth inhibition was determined via CellTiter-Glo cell viability assays. […] BT474-J4 and HN5C12 were washed with PBS and plated in their culture media without lapatinib. […] ATP levels were determined by adding Cell Titer Glo0 (Promega), incubating for 20 minutes then the luminescent signal was read on the SpectraMax M5 plate with a 0.5 second integration time. Cell growth was calculated relative to vehicle (DMSO) treated control wells. […] y=([…]) where A is the minimum response (ymin), B is the maximum response (ymax), c is the inflection point of the curve (EC50), d is the Hill coefficient, and x is the log10 compound concentration (moles/L). CI values were calculated with the interpolated IC50 values and the mutually non-exclusive equation derived by Chou and […](a)+Db/IC50(b)+(Da×Db)/(IC50(a)×IC50(b)) where IC50(a) is the IC50 of the inhibitor A; IC50(b) is the IC50 for the inhibitor B; […] Excess Over Highest Single Agent (EOHSA) is defined as a statistically significant improvement in the combination compared to the component monotherapies. […] See Borisy et al. (2003) or Hung et al. (1993) for examples and discussion. Analysis was conducted using two-factor analysis of variance with interaction (model terms were dose of drug A, dose of drug B, and interaction between doses of drug A and B), followed by linear contrasts between each combination group and corresponding monotherapies. Analysis was conducted using SAS (version 9, provided by SAS Institute, Cary, N.C.). EOHSA at each dose was calculated as the minimum difference in average % inhibition between the combination and each monotherapy, from the appropriate ANOVA contrast. Since there are many comparisons for the % inhibition endpoint, p-value adjustment for multiple comparisons was performed. Hommel's procedure was implemented in order to improve the power while retaining […] Error Rate (FWE) control by using a sequentially rejective method. The p-values for both synergy and antagonism were calculated using this adjustment.

[2] = test system: HOP-92 lung carcinoma cells; experiment: Cell growth inhibition (CellTiter-Glo), HOP-92; conditions: Homo sapiens, HOP-92, 72 h, 3 days
Description: as §1

[3] = test system: SCC15 head and neck squamous cell carcinoma cells; experiment: Cell growth inhibition (CellTiter-Glo), SCC15; conditions: Homo sapiens, SCC-15, 72 h, 3 days
Description: Esophageal carcinoma cell line OE33 was purchased from ECACC European Collection of Cell Cultures (UK). Breast cancer cell line JIMT-1 and gastric carcinoma cell line MKN-45 were purchased from Deutsche Sammlung von Mikroorganismen and Zellkulturen GmbH (Germany); KPL-4, a human breast cancer cell line was kindly provided by Prof. J Kurebayashi (Kawasaki Medical School, Kurashiki, Japan). […] The LICR-LON-HN5 head and neck carcinoma cell line (HN5) was a gift from the Institute of Cancer Research, Surrey, U.K. HN5C12 was developed by single-cell cloning of HN5 followed by exposure to increasing concentrations of lapatinib. […] Cell growth inhibition was determined via CellTiter-Glo cell viability assays. […] BT474-J4 and HN5C12 were washed with PBS and plated in their culture media without lapatinib. […] ATP levels were determined by adding Cell Titer Glo0 (Promega), incubating for 20 minutes then the luminescent signal was read on the SpectraMax M5 plate with a 0.5 second integration time. Cell growth was calculated relative to vehicle (DMSO) treated control wells. […] Excess Over Highest Single Agent (EOHSA) is defined as a statistically significant improvement in the combination compared to the component monotherapies. […] Analysis was conducted using two-factor analysis of variance with interaction (model terms were dose of drug A, dose of drug B, and interaction between doses of drug A and B), followed by linear contrasts between each combination group and corresponding monotherapies. Analysis was conducted using SAS (version 9, provided by SAS Institute, Cary, N.C.). EOHSA at each dose was calculated as the minimum difference in average % inhibition between the combination and each monotherapy, from the appropriate ANOVA contrast. Since there are many comparisons for the % inhibition endpoint, p-value adjustment for multiple comparisons was performed. Hommel's procedure was implemented in order to improve the power while retaining […] Error Rate (FWE) control by using a sequentially rejective method. The p-values for both synergy and antagonism were calculated using this adjustment.

| pIC50 ([1]; hn_HN5C2, +HGF (2 ng/mL)) | pIC50 ([1]; hn_HN5C2, −HGF) | pIC50 ([2]; lung_HOP-92, +HGF (2 ng/mL)) | pIC50 ([2]; lung_HOP-92, −HGF) | pIC50 ([3]; hn_SCC15, +HGF (2 ng/mL)) | pIC50 ([3]; hn_SCC15, −HGF) | Compound |
| --- | --- | --- | --- | --- | --- | --- |
| 5.41 | 5.39 | < 5.00 | < 5.00 | 5.42 | 5.97 | CS(=O)(=O)CCNCc1ccc(-c2ccc3ncnc(Nc4ccc(OCc5cccc(F)c5)c(Cl)c4)c3c2)o1 [Lapatinib, N-(3-chloro-4-{[(3-fluorophenyl)methyl]oxy}phenyl)-6-[5-({[2-(methylsulfonyl)ethyl]amino}methyl)-2-furanyl]-4-quinazolinamine] |
| < 5.00 | < 5.00 | < 5.00 | < 5.00 | 5.11 | 5.79 | C#Cc1cccc(Nc2ncnc3cc(OCCOC)c(OCCOC)cc23)c1 [Erlotinib, N-(3-ethynylphenyl)-6,7-bis{[2-(methyloxy)ethyl]oxy}-4-quinazolinamine] |
